Reference: patent US11312705B2, “Heteroaryl[4,3-C]pyrimidine-5-amine derivative, preparation method therefor, and medical uses thereof” (Jiangsu Hengrui Medicine Co., Ltd., priority 2017, dated 2022)

Experiments:
Assay type in all cases: cell-based
[1] = target: adenosine A2a receptor (A2aR) (Homo sapiens (Human), UniProt P29274); assay: Inhibition of adenosine A2a receptor cAMP signaling pathway (HTRF cAMP, CHO-K1/A2aR cells)
Summary of the method: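 CHO-K1 cells expressing human A2aR, preincubated 30 min at room temperature with compound (10000–0.001024 nM final) in HEPES/BSA buffer with rolipram and adenosine deaminase, then stimulated 30 min with […] (20 nM final). Intracellular cAMP read by HTRF after 1 h lysis/detection.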

[2] = target: adenosine A1 receptor (A1R) (Homo sapiens (Human), UniProt P30542); assay: Inhibition of adenosine A1 receptor cAMP signaling pathway (HTRF cAMP, CHO-K1/A1R cells); conditions: Table 2; for IC50: CHO-K1/A1R cells, forskolin 10 μM, CPA 10 nM, cAMP HTRF; for IC50 ratio (A1R/A2aR): selectivity A1R over A2aR
Chain of adenosine A1 receptor (A1R) (P30542 whole entry): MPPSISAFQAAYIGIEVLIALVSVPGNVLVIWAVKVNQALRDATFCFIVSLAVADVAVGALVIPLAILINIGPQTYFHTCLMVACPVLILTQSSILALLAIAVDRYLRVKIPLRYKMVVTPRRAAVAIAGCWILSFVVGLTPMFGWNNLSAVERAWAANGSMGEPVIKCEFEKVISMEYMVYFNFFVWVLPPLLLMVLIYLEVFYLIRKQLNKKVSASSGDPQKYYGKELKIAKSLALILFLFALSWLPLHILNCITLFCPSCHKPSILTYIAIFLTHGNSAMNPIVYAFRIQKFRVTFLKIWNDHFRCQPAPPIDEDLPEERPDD
From the text: Test Example 1. Determination of the inhibition activity of the compounds of the present invention on the adenosine A2a receptor (A2aR) cAMP signaling pathway, the adenosine A2b receptor (A2bR) cAMP signaling pathway, the adenosine A1 receptor (A1R) cAMP signaling pathway and the adenosine A3 receptor (A3R) cAMP signaling pathway.
The inhibition activity of the compounds of the present invention on the adenosine A2a receptor cAMP signaling pathway, the adenosine A2b receptor cAMP signaling pathway, the adenosine A1 receptor cAMP signaling pathway and the adenosine A3 receptor cAMP signaling pathway was determined by the following method. The experimental method is briefly described as follows:
2.2 Adenosine A1 receptor
CHO-K1/A1R cells were cultured in DMEM/F12 medium containing 10% fetal bovine serum and 1 mg/ml G418. The cells were digested with the cell separation buffer during the experiment. The cells were then resuspended in the balanced salt buffer containing 20 mM HEPES and 0.1% bovine serum albumin and counted, and the cell density was adjusted to 5×10^5 cells/ml. In the 384-well plate, each well was added with 12.5 μl of cell suspension, and 6.25 μl of test compound (4× concentration) formulated with the balanced salt buffer containing 20 mM HEPES, 0.1% bovine serum albumin, 54 μM rolipram and 2.7 U/ml adenosine deaminase, and the plate was incubated at room temperature for 30 minutes. Each well was then added with 6.25 μl of forskolin and N6-cyclopentyladenosine (4× concentration) formulated with the balanced salt buffer containing 20 mM HEPES, 0.1% bovine serum albumin, 54 μM rolipram and 2.7 U/ml adenosine deaminase, and the plate was incubated at room temperature for 30 minutes. The final concentrations of the compounds were: 100000, 10000, 1000, 100, 10, 1, 0.1 and 0 nM. The final concentration of forskolin was 10 μM. The final concentration of CPA was 10 nM. Intracellular cAMP concentration was detected with the cAMP dynamic 2 kit. cAMP-d2 and Anti-cAMP-Eu-Cryptate were diluted respectively with the cAMP lysis buffer at a ratio of 1:4. Each well was added with 12.5 μl of diluted cAMP-d2, followed by addition of 12.5 μl of diluted Anti-cAMP-Eu-Cryptate, and the plate was incubated at room temperature in the dark for 1 hour. The HTRF signal values were read by the PHERAstar multi-function microplate reader.

[3] = target: adenosine A2b receptor (A2bR) (Homo sapiens (Human), UniProt P29275); assay: Inhibition of adenosine A2b receptor cAMP signaling pathway (HTRF cAMP, CHO-K1/A2bR cells); conditions: Table 3; for IC50: CHO-K1/A2bR cells, ethyl carbazole 1 μM, cAMP HTRF
Chain of adenosine A2b receptor (A2bR) (P29275 whole entry): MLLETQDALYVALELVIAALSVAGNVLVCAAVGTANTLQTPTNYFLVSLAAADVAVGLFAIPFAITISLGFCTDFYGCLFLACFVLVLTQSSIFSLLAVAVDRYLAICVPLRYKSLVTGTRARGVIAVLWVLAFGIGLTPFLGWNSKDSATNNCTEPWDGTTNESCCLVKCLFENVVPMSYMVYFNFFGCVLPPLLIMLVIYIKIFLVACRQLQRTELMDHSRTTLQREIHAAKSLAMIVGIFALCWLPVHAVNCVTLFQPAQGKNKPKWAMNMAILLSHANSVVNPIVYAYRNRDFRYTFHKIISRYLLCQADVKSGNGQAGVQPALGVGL
Summary of the method: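 CHO-K1 cells expressing human A2bR were preincubated with compound (0-100000 nM final) for 30 min at room temperature in HEPES/BSA buffer with rolipram and adenosine deaminase. They were then stimulated with 1 μM […] for 30 min. Intracellular cAMP was measured by HTRF after 1 h detection.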

Chain of adenosine A2a receptor (A2aR) (P29274 whole entry): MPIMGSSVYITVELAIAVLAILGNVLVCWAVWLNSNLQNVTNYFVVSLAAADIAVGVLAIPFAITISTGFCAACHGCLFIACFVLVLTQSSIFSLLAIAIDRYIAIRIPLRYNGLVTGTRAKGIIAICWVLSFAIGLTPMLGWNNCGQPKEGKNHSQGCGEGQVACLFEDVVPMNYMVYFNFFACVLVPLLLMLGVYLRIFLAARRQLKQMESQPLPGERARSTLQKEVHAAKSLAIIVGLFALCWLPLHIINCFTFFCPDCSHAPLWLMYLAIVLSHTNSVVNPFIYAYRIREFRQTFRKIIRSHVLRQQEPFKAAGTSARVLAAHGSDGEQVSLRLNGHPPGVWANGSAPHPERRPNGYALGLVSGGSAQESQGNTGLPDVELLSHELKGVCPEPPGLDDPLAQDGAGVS

Compound: Cc1cc(-c2c(-c3ccc(F)cc3F)nc(N)n3cnnc23)cc(C(F)(F)F)n1 [Example 18, 7-(2,4-Difluorophenyl)-8-(2-methyl-6-(trifluoromethyl)pyridin-4-yl)-[1,2,4]triazolo[4,3-c]pyrimidin-5-amine]
- IC50 ([1]; Table 1, ethyl carbazole 20 nM): 3.96 nM
- IC50 ([1]; Table 2, ethyl carbazole 20 nM): 3.96 nM
- IC50 ([1]; Table 3, ethyl carbazole 20 nM): 0.75 nM
- IC50 [2]: 409 nM
- IC50 ratio (A1R/A2aR) [2]: 103
- IC50 [3]: 793 nM

Compound: Cc1cc(-c2c(-c3ccc(F)cc3F)nc(N)n3cnnc23)cc(C(F)F)n1 [Example 20, 8-(2-(Difluoromethyl)-6-methylpyridin-4-yl)-7-(2,4-difluorophenyl)-[1,2,4]triazolo[4,3-c]pyrimidin-5-amine]
- IC50 ([1]; Table 1, ethyl carbazole 20 nM): 2.33 nM
- IC50 ([1]; Table 2, ethyl carbazole 20 nM): 2.33 nM
- IC50 ([1]; Table 3, ethyl carbazole 20 nM): 2.33 nM
- IC50 [2]: 519 nM
- IC50 ratio (A1R/A2aR) [2]: 223
- IC50 [3]: 522 nM
- IC50 ratio (A2bR/A2aR) ([3]; selectivity A2bR over A2aR): 224
